Measurements reported in US20090299044A1 (priority 2006, published 2009).
Entries after “also recorded” stand apart in the source; their conditions may differ. Bridge positions count the residues as written; N and C are the ends. Ends that are not written are not given here. Peptide text beside a SMILES is read from it.

Assays:
human Kv1.3 channel = human Kv1.3 channel (Homo sapiens, UniProt P22001); test: cell-based; type: cell-based
human Kv1.3 (CHO) = target: T1, human Kv1.3 (CHO) (Homo sapiens, UniProt P22001); test: cell-based
T1 construct: expressed in transfected cells; host or cells: CHO
T1 sequence (P22001 whole entry): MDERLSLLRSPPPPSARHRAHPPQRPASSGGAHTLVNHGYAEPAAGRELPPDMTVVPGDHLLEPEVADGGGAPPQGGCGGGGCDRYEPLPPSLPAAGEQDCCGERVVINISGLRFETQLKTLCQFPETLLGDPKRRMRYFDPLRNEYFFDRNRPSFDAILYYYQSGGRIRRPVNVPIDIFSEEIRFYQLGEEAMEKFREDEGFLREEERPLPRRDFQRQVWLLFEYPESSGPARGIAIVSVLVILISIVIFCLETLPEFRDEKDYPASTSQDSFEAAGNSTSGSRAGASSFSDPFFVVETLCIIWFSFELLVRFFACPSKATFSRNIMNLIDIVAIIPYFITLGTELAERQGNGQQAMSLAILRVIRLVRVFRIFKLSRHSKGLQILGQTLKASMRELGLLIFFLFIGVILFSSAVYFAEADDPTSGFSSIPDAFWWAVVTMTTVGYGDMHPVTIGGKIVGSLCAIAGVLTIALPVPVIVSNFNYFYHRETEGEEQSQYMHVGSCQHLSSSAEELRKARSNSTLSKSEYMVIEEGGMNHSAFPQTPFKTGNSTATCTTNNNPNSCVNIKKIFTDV

human Kv1.1 (HEK293) = target: T2, human Kv1.1 (HEK293) (Homo sapiens, UniProt Q09470); test: cell-based
T2 construct: expressed in transfected cells; host or cells: HEK293
T2 sequence (Q09470 whole entry): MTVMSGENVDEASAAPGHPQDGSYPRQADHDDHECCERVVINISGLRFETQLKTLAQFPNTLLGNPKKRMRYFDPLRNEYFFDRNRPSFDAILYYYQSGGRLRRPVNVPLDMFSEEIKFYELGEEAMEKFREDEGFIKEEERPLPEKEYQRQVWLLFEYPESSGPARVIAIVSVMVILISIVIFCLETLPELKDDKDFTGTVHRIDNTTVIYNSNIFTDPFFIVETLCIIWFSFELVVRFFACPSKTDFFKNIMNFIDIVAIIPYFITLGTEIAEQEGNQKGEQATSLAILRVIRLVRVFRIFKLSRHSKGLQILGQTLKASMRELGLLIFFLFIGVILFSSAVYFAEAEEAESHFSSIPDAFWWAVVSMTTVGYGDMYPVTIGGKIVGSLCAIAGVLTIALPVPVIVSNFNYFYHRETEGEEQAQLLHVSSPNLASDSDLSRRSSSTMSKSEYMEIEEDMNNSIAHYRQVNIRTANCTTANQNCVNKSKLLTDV

human Kv1.1 = human Kv1.1 (Homo sapiens, UniProt Q09470); test: cell-based; design: expressed in transfected cells; host or cells: HEK293; conditions: Kv1.1 (IC50, pM)
Chain of human Kv1.1 (Q09470 whole entry): as above

[1] = system: IL-2 production, human whole blood; type: cell-based

Chain of human Kv1.3 channel (P22001 whole entry): as the sequence (P22001 whole entry) above

## CC[C@H](C)[C@@H]1NC(=O)[C@H](CCCCN)NC(=O)[C@@H](NC(=O)[C@H](CCCCN)NC(=O)[C@@H](NC(=O)[C@H](CC(N)=O)NC(=O)[C@@H](NC(=O)[C@@H](NC(=O)[C@@H](NC(=O)CN)C(C)C)[C@@H](C)CC)[C@@H](C)CC)C(C)C)CSSC[C@@H]2NC(=O)[C@H](CCCCN)NC(=O)CNC(=O)[C@H](Cc3ccccc3)NC(=O)[C@H](CCCNC(=N)N)NC(=O)[C@H](CCSC)NC(=O)CNC(=O)[C@H](C)NC(=O)[C@H](CCCCN)NC(=O)[C@H](CCCCN)NC(=O)[C@@H]3CSSC[C@@H](C(=O)N[C@H](C(=O)N4CCC[C@H]4C(=O)N[C@@H](CCCCN)C(=O)O)[C@@H](C)O)NC(=O)[C@H](Cc4c[nH]cn4)NC(=O)[C@H](CSSC[C@H](NC(=O)[C@H](CCC(N)=O)NC(=O)[C@H](CCCNC(=N)N)NC(=O)[C@H](CO)NC1=O)C(=O)N[C@@H](CC(C)C)C(=O)N[C@@H](CCC(=O)O)C(=O)N1CCC[C@H]1C(=O)N3)NC(=O)[C@H](CCCCN)NC(=O)CNC(=O)[C@H](C)NC(=O)[C@H](CCSC)NC2=O [N30A] (H-GVIINVKCKISRQCLEPCKKAGMRFGKCMAGKCHCTPK-OH; disulfide 8-28, 14-33, 18-35)
Human Kv1.3 channel
  IC50: 0.766 nM
Human Kv1.3 (CHO)
  IC50: 0.693 nM
Human Kv1.1 (HEK293)
  IC50: > 3 nM
Human Kv1.1
  IC50: 10200 pM

## CC[C@H](C)[C@@H]1NC(=O)[C@H](CCCCN)NC(=O)[C@@H](NC(=O)[C@H](CCCCN)NC(=O)[C@@H](NC(=O)[C@H](CC(N)=O)NC(=O)[C@@H](NC(=O)[C@@H](NC(=O)[C@@H](NC(=O)CN)C(C)C)[C@@H](C)CC)[C@@H](C)CC)C(C)C)CSSC[C@@H]2NC(=O)[C@H](CCCCN)NC(=O)CNC(=O)[C@H](Cc3ccccc3)NC(=O)[C@H](CCCNC(=N)N)NC(=O)[C@H](CCSC)NC(=O)CNC(=O)[C@H](C)NC(=O)[C@H](CCCCN)NC(=O)[C@H](CCCCN)NC(=O)[C@@H]3CSSC[C@@H](C(=O)N[C@H](C(=O)N[C@@H](CCC(=O)O)C(=O)N[C@@H](CCCCN)C(=O)O)[C@@H](C)O)NC(=O)[C@H](Cc4c[nH]cn4)NC(=O)[C@H](CSSC[C@H](NC(=O)[C@H](CCC(N)=O)NC(=O)[C@H](CCCNC(=N)N)NC(=O)[C@H](CO)NC1=O)C(=O)N[C@@H](CC(C)C)C(=O)N[C@@H](CCC(=O)O)C(=O)N1CCC[C@H]1C(=O)N3)NC(=O)[C@H](CCCCN)NC(=O)CNC(=O)[C@H](CC(N)=O)NC(=O)[C@H](CCSC)NC2=O [P37E] (H-GVIINVKCKISRQCLEPCKKAGMRFGKCMNGKCHCTEK-OH; disulfide 8-28, 14-33, 18-35)
Human Kv1.3 channel
  IC50: 0.241 nM
Human Kv1.3 (CHO)
  IC50: 0.0627 nM
Human Kv1.1 (HEK293)
  IC50: 0.622 nM
Human Kv1.1
  IC50: 15700 pM

## CC[C@H](C)[C@@H]1NC(=O)[C@H](CCCCN)NC(=O)[C@@H](NC(=O)[C@H](CCCCN)NC(=O)[C@@H](NC(=O)[C@H](CC(N)=O)NC(=O)[C@@H](NC(=O)[C@@H](NC(=O)[C@@H](NC(=O)CN)C(C)C)[C@@H](C)CC)[C@@H](C)CC)C(C)C)CSSC[C@@H]2NC(=O)[C@H](CCCCN)NC(=O)CNC(=O)[C@H](Cc3ccccc3)NC(=O)[C@H](CCCNC(=N)N)NC(=O)[C@H](CCSC)NC(=O)CNC(=O)[C@H](C)NC(=O)[C@H](CCCCN)NC(=O)[C@H](CCCCN)NC(=O)[C@@H]3CSSC[C@@H](C(=O)N[C@H](C(=O)N4CCC[C@H]4C(=O)N[C@@H](CCCCN)C(=O)O)[C@@H](C)O)NC(=O)[C@H](Cc4c[nH]cn4)NC(=O)[C@H](CSSC[C@H](NC(=O)[C@H](CCC(N)=O)NC(=O)[C@H](C)NC(=O)[C@H](CO)NC1=O)C(=O)N[C@@H](CC(C)C)C(=O)N[C@@H](CCC(=O)O)C(=O)N1CCC[C@H]1C(=O)N3)NC(=O)[C@H](CCCCN)NC(=O)CNC(=O)[C@H](CC(N)=O)NC(=O)[C@H](CCSC)NC2=O [R12A] (H-GVIINVKCKISAQCLEPCKKAGMRFGKCMNGKCHCTPK-OH; disulfide 8-28, 14-33, 18-35)
Human Kv1.3 channel
  IC50: 0.025 nM
Human Kv1.3 (CHO)
  IC50: 0.39 nM
Human Kv1.1 (HEK293)
  IC50: 0.0559 nM
Human Kv1.1
  IC50: 440 pM

## CC[C@H](C)[C@@H]1NC(=O)[C@H](CCCCN)NC(=O)[C@@H](NC(=O)[C@H](CCCCN)NC(=O)[C@@H](NC(=O)[C@H](CC(N)=O)NC(=O)[C@@H](NC(=O)[C@@H](NC(=O)[C@@H](NC(=O)CN)C(C)C)[C@@H](C)CC)[C@@H](C)CC)C(C)C)CSSC[C@@H]2NC(=O)[C@H](CCCCN)NC(=O)CNC(=O)[C@H](Cc3ccccc3)NC(=O)[C@H](CCCNC(=N)N)NC(=O)[C@H](CCSC)NC(=O)CNC(=O)[C@H](C)NC(=O)[C@H](CCCCN)NC(=O)[C@H](CCCCN)NC(=O)[C@@H]3CSSC[C@@H](C(=O)N[C@H](C(=O)N4CCC[C@H]4C(=O)N[C@@H](CCCCN)C(=O)O)[C@@H](C)O)NC(=O)[C@H](Cc4c[nH]cn4)NC(=O)[C@H](CSSC[C@H](NC(=O)[C@H](CCC(N)=O)NC(=O)[C@H](CCCNC(=N)N)NC(=O)[C@H](CCCNC(=N)N)NC1=O)C(=O)N[C@@H](CC(C)C)C(=O)N[C@@H](CCC(=O)O)C(=O)N1CCC[C@H]1C(=O)N3)NC(=O)[C@H](CCCCN)NC(=O)CNC(=O)[C@H](CC(N)=O)NC(=O)[C@H](CCSC)NC2=O [S11R] (H-GVIINVKCKIRRQCLEPCKKAGMRFGKCMNGKCHCTPK-OH; disulfide 8-28, 14-33, 18-35)
Human Kv1.3 channel
  IC50: 0.04 nM
Human Kv1.3 (CHO)
  IC50: 0.0167 nM
Human Kv1.1 (HEK293)
  IC50: 0.21 nM
Human Kv1.1
  IC50: 9130 pM

## CC[C@H](C)[C@@H]1NC(=O)[C@H](CCCCN)NC(=O)[C@@H](NC(=O)[C@H](CCCCN)NC(=O)[C@@H](NC(=O)[C@H](CC(N)=O)NC(=O)[C@@H](NC(=O)[C@@H](NC(=O)[C@@H](NC(=O)CN)C(C)C)[C@@H](C)CC)[C@@H](C)CC)C(C)C)CSSC[C@@H]2NC(=O)[C@H](CCCCN)NC(=O)CNC(=O)[C@H](Cc3ccccc3)NC(=O)[C@H](CCCNC(=N)N)NC(=O)[C@H](CCSC)NC(=O)CNC(=O)[C@H](C)NC(=O)[C@H](CCCCN)NC(=O)[C@H](CCCCN)NC(=O)[C@@H]3CSSC[C@@H](C(=O)N[C@@H](CCC(=O)O)C(=O)N4CCC[C@H]4C(=O)N[C@@H](CCCCN)C(=O)O)NC(=O)[C@H](Cc4c[nH]cn4)NC(=O)[C@H](CSSC[C@H](NC(=O)[C@H](CCC(N)=O)NC(=O)[C@H](CCCNC(=N)N)NC(=O)[C@H](CO)NC1=O)C(=O)N[C@@H](CC(C)C)C(=O)N[C@@H](CCC(=O)O)C(=O)N1CCC[C@H]1C(=O)N3)NC(=O)[C@H](CCCCN)NC(=O)CNC(=O)[C@H](CC(N)=O)NC(=O)[C@H](CCSC)NC2=O [T36E] (H-GVIINVKCKISRQCLEPCKKAGMRFGKCMNGKCHCEPK-OH; disulfide 8-28, 14-33, 18-35)
Human Kv1.3 channel
  IC50: 1.92 nM
Human Kv1.3 (CHO)
  IC50: 0.161 nM
Human Kv1.1 (HEK293)
  IC50: > 3.33 nM
Human Kv1.1
  IC50: 83900 pM

## SEQ ID No: 4989: OSK1 analog without beta strand 1 (des 1-7), Table 42 (CKISRQCLKPCKDAGMRFGKCMNGKCHC-NH2; ends and bridges not checked)
[1]
  blockade of the whole blood cytokine response (IL-2 and IFNg), in words: retain activity in blocking inflammation

B1: PEGylated CH2-OSK1: CH2-OSK1 fusion protein mono-PEGylated with 20 kD methoxy-PEG-aldehyde (conjugate)
chain: MGGHHHHHHGGGPSVFLFPPKPKDTLMISRTPEVTCVVVDVSHEDPEVKFNWYVDGVEVHNAKTKPREEQYNSTYRVVSVLTVLHQDWLNGKEYKCKVSNKALPAPIEKTISGGGGSGGGGSGVIINVKCKISRQCLEPCKKAGMRFGKCMNGKCHCTPK
[1]
  blockade of the whole blood cytokine response (IL-2 and IFNg), in words: active in blocking inflammation; also recorded: modest blockade

B2: FcLoop-L2-OsK1-L2: OsK1 inserted into the human IgG1 Fc-loop between Leu139 and Thr140 with 2-Gly linkers (protein)
chain: MDKTHTCPPCPAPELLGGPSVFLFPPKPKDTLMISRTPEVTCVVVDVSHEDPEVKFNWYVDGVEVHNAKTKPREEQYNSTYRVVSVLTVLHQDWLNGKEYKCKVSNKALPAPIEKTISKAKGQPREPQVYTLPPSRDELGGGVIINVKCKISRQCLEPCKKAGMRFGKCMNGKCHCTPKGGTKNQVSLTCLVKGFYPSDIAVEWESNGQPENNYKTTPPVLDSDGSFFLYSKLTVDKSRWQQGNVFSCSVMHEALHNHYTQKSLSLSPGK
modifications: Definition of Artificial Sequence: Synthetic protein
[1]
  blockade of the whole blood cytokine response (IL-2 and IFNg), in words: potent blockade

B3: FcLoop-L2-ShK-L2: ShK inserted into the human IgG1 Fc-loop with 2-Gly linkers (protein)
chain: MDKTHTCPPCPAPELLGGPSVFLFPPKPKDTLMISRTPEVTCVVVDVSHEDPEVKFNWYVDGVEVHNAKTKPREEQYNSTYRVVSVLTVLHQDWLNGKEYKCKVSNKALPAPIEKTISKAKGQPREPQVYTLPPSRDELGGRSCIDTIPKSRCTAFQCKHSMKYRLSFCRKTCGTCGGTKNQVSLTCLVKGFYPSDIAVEWESNGQPENNYKTTPPVLDSDGSFFLYSKLTVDKSRWQQGNVFSCSVMHEALHNHYTQKSLSLSPGK
modifications: Definition of Artificial Sequence: Synthetic protein
[1]
  blockade of the whole blood cytokine response (IL-2 and IFNg), in words: potent blockade
